From PubChem BioAssay (NCI)
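In this assay, cells in 96-well plates receive the compound at five concentrations for 48 hours. Endpoints are linearly interpolated between the surrounding concentrations. GI50 marks 50% less growth. Definition used: TGI = concentration required for complete inhibition of growth.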

Assays:
Assay in all cases: growth of human tumour cells (NCI), 48 h
A498 renal = system: A498 renal
MCF7 breast = system: MCF7 breast
SF-539 CNS = system: SF-539 CNS
MDA-MB-468 breast = system: MDA-MB-468 breast
KM12 colon = system: KM12 colon
SK-MEL-5 melanoma = system: SK-MEL-5 melanoma
K-562 leukemia = system: K-562 leukemia
SNB-75 CNS = system: SNB-75 CNS
SN12C renal = system: SN12C renal
RPMI-8226 leukemia = system: RPMI-8226 leukemia
EKVX NSCLC = system: EKVX NSCLC
CCRF-CEM leukemia = system: CCRF-CEM leukemia
PC-3 prostate = system: PC-3 prostate
NCI-H522 lung = system: NCI-H522 lung
TK-10 renal = system: TK-10 renal
HL-60(TB) leukemia = system: HL-60(TB) leukemia
MDA-MB-231 breast = system: MDA-MB-231 breast
CAKI-1 renal = system: CAKI-1 renal
RXF 393 renal = system: RXF 393 renal
OVCAR-5 ovarian = system: OVCAR-5 ovarian
UACC-62 melanoma = system: UACC-62 melanoma
DU-145 prostate = system: DU-145 prostate
HOP-92 NSCLC = system: HOP-92 NSCLC
SF-268 CNS = system: SF-268 CNS
M14 melanoma = system: M14 melanoma
NCI/ADR-RES ovarian = system: NCI/ADR-RES ovarian
SNB-19 CNS = system: SNB-19 CNS
OVCAR-8 ovarian = system: OVCAR-8 ovarian
IGROV1 ovarian = system: IGROV1 ovarian
SK-MEL-2 melanoma = system: SK-MEL-2 melanoma
MOLT-4 leukemia = system: MOLT-4 leukemia
SR leukemia = system: SR leukemia
ACHN renal = system: ACHN renal
NCI-H460 lung = system: NCI-H460 lung
HS 578T breast = system: HS 578T breast
UO-31 renal = system: UO-31 renal
HOP-62 NSCLC = system: HOP-62 NSCLC
LOX IMVI melanoma = system: LOX IMVI melanoma
HCC-2998 colon = system: HCC-2998 colon
HT29 colon = system: HT29 colon
SW-620 colon = system: SW-620 colon
MALME-3M melanoma = system: MALME-3M melanoma
BT-549 breast = system: BT-549 breast
SF-295 CNS = system: SF-295 CNS
HCT-15 colon = system: HCT-15 colon
UACC-257 melanoma = system: UACC-257 melanoma
SK-OV-3 ovarian = system: SK-OV-3 ovarian
A549 NSCLC = system: A549 NSCLC
OVCAR-3 ovarian = system: OVCAR-3 ovarian
SK-MEL-28 melanoma = system: SK-MEL-28 melanoma
T-47D breast = system: T-47D breast
U251 CNS = system: U251 CNS
NCI-H23 lung = system: NCI-H23 lung
HCT-116 colon = system: HCT-116 colon
MDA-MB-435 = system: MDA-MB-435
OVCAR-4 ovarian = system: OVCAR-4 ovarian
786-0 renal = system: 786-0 renal
COLO 205 colon = system: COLO 205 colon
NCI-H226 lung = system: NCI-H226 lung

## Cc1cccc(/C=C/c2ccc(NC(=S)NCCCCN(C)C)cc2)c1
A498 renal
  GI50: 13.5 µM
  TGI: 27.4 µM
MCF7 breast
  GI50: 11.8 µM
  TGI: 27.5 µM
SF-539 CNS
  GI50: 13.4 µM
  TGI: 26.3 µM
MDA-MB-468 breast
  GI50: 12.7 µM
  TGI: 26.6 µM
KM12 colon
  GI50: 16.5 µM
  TGI: 31.9 µM
SK-MEL-5 melanoma
  GI50: 15.9 µM
  TGI: 29.4 µM
K-562 leukemia
  GI50: 3.96 µM
  TGI: > 100 µM
SNB-75 CNS
  GI50: 9.05 µM
  TGI: 21.9 µM
SN12C renal
  GI50: 14.9 µM
  TGI: 29 µM
RPMI-8226 leukemia
  GI50: 20.1 µM
  TGI: 72.4 µM
EKVX NSCLC
  GI50: 16.2 µM
  TGI: 31.2 µM
CCRF-CEM leukemia
  GI50: 11.7 µM
  TGI: 37.3 µM
PC-3 prostate
  GI50: 14.2 µM
  TGI: 32.2 µM
NCI-H522 lung
  GI50: 15.9 µM
  TGI: 33.5 µM
TK-10 renal
  GI50: 20.7 µM
  TGI: 38.5 µM
HL-60(TB) leukemia
  GI50: 8.41 µM
  TGI: 29.7 µM
MDA-MB-231 breast
  GI50: 12.9 µM
  TGI: 26.6 µM
CAKI-1 renal
  GI50: 14.5 µM
  TGI: 27.9 µM
RXF 393 renal
  GI50: 11.3 µM
  TGI: 24.2 µM
OVCAR-5 ovarian
  GI50: 15.5 µM
  TGI: 29.5 µM
UACC-62 melanoma
  GI50: 15.9 µM
  TGI: 29.6 µM
DU-145 prostate
  GI50: 15.1 µM
  TGI: 29.2 µM
HOP-92 NSCLC
  GI50: 8.39 µM
  TGI: 24.3 µM
SF-268 CNS
  GI50: 13.8 µM
  TGI: 28.5 µM
M14 melanoma
  GI50: 15.4 µM
  TGI: 31.6 µM
NCI/ADR-RES ovarian
  GI50: 16.3 µM
  TGI: 32.3 µM
SNB-19 CNS
  GI50: 16.1 µM
  TGI: 29.8 µM
OVCAR-8 ovarian
  GI50: 18.9 µM
  TGI: 38.1 µM
IGROV1 ovarian
  GI50: 16.6 µM
  TGI: 31.2 µM
SK-MEL-2 melanoma
  GI50: 18.5 µM
  TGI: 34.9 µM
MOLT-4 leukemia
  GI50: 13.4 µM
  TGI: 37.5 µM
SR leukemia
  GI50: 12.2 µM
  TGI: 39.2 µM
ACHN renal
  GI50: 16.3 µM
  TGI: 29.9 µM
NCI-H460 lung
  GI50: 12.8 µM
  TGI: 27.3 µM
HS 578T breast
  GI50: 16.6 µM
  TGI: 38.4 µM
UO-31 renal
  GI50: 14.2 µM
  TGI: 27.3 µM
HOP-62 NSCLC
  GI50: 19 µM
  TGI: 37.9 µM
LOX IMVI melanoma
  GI50: 11.6 µM
  TGI: 25.4 µM
HCC-2998 colon
  GI50: 15.1 µM
  TGI: 29.9 µM
HT29 colon
  GI50: 5.38 µM
  TGI: 29.9 µM
SW-620 colon
  GI50: 14.8 µM
  TGI: 29.5 µM
MALME-3M melanoma
  GI50: 15.8 µM
  TGI: 29.6 µM
BT-549 breast
  GI50: 15.3 µM
  TGI: 29.9 µM
SF-295 CNS
  GI50: 16.2 µM
  TGI: 31.5 µM
HCT-15 colon
  GI50: 11.9 µM
  TGI: 25.1 µM
UACC-257 melanoma
  GI50: 18.1 µM
  TGI: 34.8 µM
SK-OV-3 ovarian
  GI50: 19.7 µM
  TGI: 36.4 µM
A549 NSCLC
  GI50: 18.4 µM
  TGI: 39.8 µM
OVCAR-3 ovarian
  GI50: 12.7 µM
  TGI: 26.1 µM
SK-MEL-28 melanoma
  GI50: 15.6 µM
  TGI: 29.3 µM
T-47D breast
  GI50: 16.9 µM
  TGI: 36.9 µM
U251 CNS
  GI50: 16.1 µM
  TGI: 33.7 µM
NCI-H23 lung
  GI50: 16.1 µM
  TGI: 31.2 µM
HCT-116 colon
  GI50: 11 µM
  TGI: 29.6 µM
MDA-MB-435
  GI50: 13.9 µM
  TGI: 27.7 µM
OVCAR-4 ovarian
  GI50: 14.8 µM
  TGI: 29 µM
786-0 renal
  GI50: 14.9 µM
  TGI: 30.1 µM
COLO 205 colon
  GI50: 15.6 µM
  TGI: 33.5 µM
NCI-H226 lung
  GI50: 14.9 µM
  TGI: 31.2 µM
